In PubChem BioAssay (NCI):
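The compound was tested at five concentrations on cells cultured in 96-well plates, with a 48-hour exposure period. TGI denotes the concentration required for complete inhibition of growth.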

Key:
Assay in all cases: DTP human tumour cell line panel, 48 h
HCT-15 colon = test system: HCT-15 colon
NCI-H460 lung = test system: NCI-H460 lung
NCI-H23 lung = test system: NCI-H23 lung
SF-295 CNS = test system: SF-295 CNS
SF-268 CNS = test system: SF-268 CNS
UACC-257 melanoma = test system: UACC-257 melanoma
OVCAR-5 ovarian = test system: OVCAR-5 ovarian
HT29 colon = test system: HT29 colon
NCI-H226 lung = test system: NCI-H226 lung
M14 melanoma = test system: M14 melanoma

SMILES	TGI (HCT-15 colon)	TGI (NCI-H460 lung)	TGI (NCI-H23 lung)	TGI (SF-295 CNS)	TGI (SF-268 CNS)	TGI (UACC-257 melanoma)	TGI (OVCAR-5 ovarian)	TGI (HT29 colon)	TGI (NCI-H226 lung)	TGI (M14 melanoma)
COc1cc2c(c(OC(C)=O)c1OC(C)=O)-c1ccc(SC)c(=O)cc1C(NC(C)=O)CC2 (stereo not given)	> 100 µM	20 µM	31.4 µM	10.1 µM	> 100 µM	> 100 µM	> 100 µM	> 44.8 µM	15.1 µM	> 69.1 µM
O=C(NNC(=S)NCc1ccccc1)C12CC3CC(CC(C3)C1)C2	> 100 µM	> 100 µM	> 100 µM	> 100 µM	> 100 µM	> 100 µM	> 100 µM	> 100 µM	> 100 µM	> 100 µM
CC[C@@H](/C=C\CCC1(C[C@@H](N)CCC=C(C)C)OCCO1)O[Si](C(C)C)(C(C)C)C(C)C	35.4 µM	34.9 µM	38.2 µM	37.4 µM	39.9 µM	36.6 µM	31.1 µM	32 µM	34.2 µM	33.6 µM
CC(=O)Nc1ccc2cc3[nH]c4cc(NC(C)=O)ccc4c3nc2c1	> 100 µM	> 100 µM	> 100 µM	> 100 µM	> 100 µM	> 100 µM	> 100 µM	> 100 µM	> 100 µM	> 100 µM
N#CCCN(CCC#N)c1ccc(C(N=Nc2ccc(Cl)cc2)=Nc2ccc(F)cc2)cc1	> 100 µM	> 100 µM	> 100 µM	> 100 µM	> 100 µM	> 100 µM	> 100 µM	> 100 µM	> 100 µM	> 100 µM
NC(N)=NS(=O)(=O)c1ccc(NC(=O)c2ccc3[nH]c4ccccc4c(=O)c3c2)cc1	> 100 µM	> 100 µM	> 100 µM	> 100 µM	> 100 µM	> 100 µM	> 100 µM	> 100 µM	> 100 µM	> 100 µM
NC(=S)NS(=O)(=O)c1ccc(F)cc1F	> 100 µM	> 100 µM	> 100 µM	> 100 µM	> 100 µM	> 100 µM	> 100 µM	> 100 µM	> 100 µM	> 100 µM
O=C(Nn1cnn2c(=O)c3ccccc3nc2c1=O)c1ccccc1	> 100 µM	> 100 µM	> 100 µM	> 100 µM	> 100 µM	> 100 µM	> 100 µM	> 100 µM	> 100 µM	> 100 µM
C=C1CC(COc2ccc3c(C)cc(=O)oc3c2)(c2ccccc2)OC1=O (stereo not given)	3.62 µM	23.5 µM	5.53 µM	23 µM	23.9 µM	3.9 µM	24.5 µM	2.96 µM	15.7 µM	2.66 µM
COC(=O)[C@@H]1Cc2cc(O)c(O)cc2C2(CCN(C)CC2)O1	> 10 µM	> 10 µM	> 10 µM	> 10 µM	> 10 µM	> 10 µM	> 10 µM	> 10 µM	> 10 µM	> 10 µM
Cn1c2c3c(F)c(F)ccc3nc-2cc2ccccc21	10.7 µM	12.6 µM	3.18 µM	5.69 µM	25.4 µM	19.7 µM	9.07 µM	12.1 µM	13.4 µM	5.41 µM
CN(C)c1ccc(C2ON=C(c3ccccc3)N2C23CC4CC(CC(C4)C2)C3)cc1 (stereo not given)	> 10 µM	> 10 µM	> 10 µM	> 10 µM	> 10 µM	> 10 µM	> 10 µM	> 10 µM	> 10 µM	> 10 µM
O=C(CN(c1ccc(S(=O)(=O)O)cc1)c1ccc(S(=O)(=O)O)cc1)Nn1cnc2ccc(S(=O)(=O)N(c3ccc(S(=O)(=O)O)cc3)c3ccc(S(=O)(=O)O)cc3)cc2c1=O	> 100 µM	> 100 µM	> 100 µM	> 100 µM	> 100 µM	> 100 µM	> 100 µM	> 100 µM	> 100 µM	> 100 µM
CCN(CC)CCNc1ccc2nnn3c4ccccc4c(=O)c1c23	26.2 µM	6.27 µM	19.7 µM	15.3 µM	19.2 µM	22.3 µM	14.4 µM	14.2 µM	8.09 µM	15.6 µM
Oc1ccc(-c2cn3cc(C(F)(F)F)ccc3n2)cc1	> 100 µM	> 100 µM	> 100 µM	> 100 µM	> 100 µM	> 100 µM	> 100 µM	> 100 µM	> 100 µM	> 100 µM
CCC(=O)NCCc1c2c3c(ccnc3c3ncsc13)-c1ccccc1N2	> 100 µM	29.1 µM	> 100 µM	> 100 µM	> 100 µM	> 94.9 µM	> 100 µM	> 100 µM	16.7 µM	> 100 µM
